Experimental data: patent publication US20050043239A1, “Methods of inhibiting immune responses stimulated by an endogenous factor” (priority 2003, published 2005)
“Also recorded” adds a separate entry of the source. One block for each molecule: values may come before it.

Tests used:
[1] = test system: human neutrophils; assay: Neutrophil chemotaxis, Transwell assay; type: cell-based; details: no inhibitor, read-out: concentration of chemoattractant necessary to support half-maximal migration
Description: It is known that distinct signal transduction pathways are utilized by host-derived versus bacteria-produced chemoattractants [Heit, J. Cell Biol., 159:91-102 (2002)]. To determine whether specific chemotactic agents preferentially rely on PI3Kδ in order to promote directed cell migration, the effect of inhibiting PI3Kδ on the ability of neutrophils to undergo chemotaxis was examined using a Transwell™ assay system.
Neutrophil chemotaxis experiments were conducted as described [Roth et al., J. Immunol. Methods, 188:97-116 (1995)]. Briefly, purified human neutrophils were incubated with DMSO (0.3% v/v) or an inhibitor in accordance with the invention reconstituted in DMSO (0.3%) for 20 minutes at room temperature. Cells were added to bare filter inserts (Transwell™ 5 μm pore size; Corning Costar, Cambridge, Mass.), that were placed into wells containing chemoattractants or control medium of a Ultra low 24-well cluster plate, and incubated for 1 hour at 37° C. in a 5% CO2 humidified environment. The number of neutrophils that migrated into the bottom well was determined by FACScan (Becton Dickinson, San Jose, Calif.). Results were expressed as percent neutrophil migration relative to the control (medium without inhibitor).
Dose response curves were generated to determine the concentrations of each chemoattractant, both host and bacterial-derived, necessary to support half-maximal migration. […] Methods, 137:37-46 (1991)].

[2] = test system: neutrophils; assay: Superoxide production by activated neutrophils (WST-1); type: cell-based; details: no inhibitor; read-out: agonist concentration representing half-maximal production of superoxide anions
[3] = test system: neutrophils; assay: Neutrophil elastase release (exocytosis) assay; type: cell-based; details: no inhibitor; read-out: agonist concentration representing half-maximal release of elastase
[4] = test system: Listeria monocytogenes; assay: Clearance of systemic Listeria monocytogenes infection; type: in vivo; details: for Log colony count/gm spleen tissue in dexamethasone group (2 mg/kg): 72 hours post-infection, Lewis rats
Description: Two separate bacterial clearance studies were conducted. […] Colony counts (CFU) per gram of spleen tissues were determined at necropsy, 72 hours post-infection and expressed as the log of the colony count (e.g., 100000 CFU=log 5) per gram of tissue. Colony count measurements provide an indication of the extent of phagocytosis of bacteria by splenic neutrophils and macrophages.

- EC50 [1]: 0.25 nM
- EC50 [3]: 2 nM
Molecule: CCCCC/C=C\C[C@@H](O)/C=C/C=C/C=C\[C@@H](O)CCCC(=O)O [LTB4, leukotriene B4]
- EC50 [2]: 2 nM

Molecule: C[C@@H]1C[C@H]2[C@@H]3CCC4=CC(=O)C=C[C@]4(C)[C@@]3(F)[C@@H](O)C[C@]2(C)[C@@]1(O)C(=O)CO [dexamethasone]
- Log colony count/gm spleen tissue in dexamethasone group (2 mg/kg) ([4]; Clearance Experiment 1, 2 mg/kg BID PO): count, >5 log colony count/gm spleen tis
- Log colony count/gm spleen tissue in dexamethasone group (2 mg/kg) ([4]; Clearance Experiment 2, 2 mg/kg): hours, >10 log colony count/gm spleen tis
- lethality / condition of animals at 72 hours ([4]; second experiment, dexamethasone 2 mg/kg): lethality was observed; also recorded: Moribund at 72

- EC50 [1]: 0.35 nM
Molecule: interleukin 8 [IL-8]

- EC50 [1]: 0.37 nM
B1: complement factor C5a (protein, UniProt P01031 678-751, looked up)
C5a anaphylatoxin: TLQKKIEEIAAKYKHSVVKKCCYDGACVNNDETCEQRAARISLGPRCIKAFTECCVVASQLRANISHKDMQLGR
modifications: C5a anaphylatoxin
notes: host-derived chemoattractant
